Source: patent publication US12460265B2, “Post-treatment breast cancer prognosis” (Biotheranostics, Inc., priority 2010, dated 2025)

Experiments:
[1] = tested on: primary ER+ breast cancer; details: post-tamoxifen treatment; subjects with primary ER+ breast cancer; cited from earlier work
ER+ breast cancer = experiment: NCIC CTG MA.17 case-control study: cancer recurrence after 5 years of adjuvant tamoxifen, letrozole vs placebo; format: in vivo, human; details: for Cases (cancer recurrence), number / Cases (cancer recurrence), percent: Letrozole arm
Text: Samples from the NCIC CTG MA.17 cohort (see Goss et al., J. Clin. Oncol., 26(12):1948-1955, 2008) were used. 100 cases with 200 controls were used. The 100 cases included 61 cases of distant cancer recurrence; 17 cases of local cancer recurrence; 5 cases of regional cancer recurrence; 16 cases of contralateral recurrences; and 1 unknown case. Of these, the contralateral and unknown cases were excluded.
Clinical follow-up data were available for the samples used, which were formalin-fixed paraffin-embedded (FFPE) tumor blocks from the time of diagnosis. Odds ratios were calculated with analysis of BCI, H:I, HoxB13 and MGI as continuous and categorical variables. Multivariate analysis also included age, tumor grade and treatment in the analysis. Treatment interaction: age and tumor grade were also included in the analysis. P-values were calculated for the interaction term.
STATISTICAL ANALYSES: Kaplan-Meier analysis with logrank test and Cox proportional hazards regression were performed to assess the association of gene expression indexes with clinical outcome. Multivariate Cox regression models were performed to assess the prognostic capacity of gene expression indexes after adjusting for known prognostic factors.
Proportional hazards (PH) assumption was checked by scaled Schoenfeld residuals; variables violating PH assumption were adjusted for in the model through stratification. To account for the case-cohort design of the Table 1 cohort, we used weighted Kaplan-Meier analysis and Cox regression models with modifications to handle case-cohort designs (see ^19,20 as implemented in the survey package in R (www.r-project.org). To test for interaction between dichotomized MGI and the H:I ratio in Cox regression models, the Wald statistic was used in the Table 1 cohort and likelihood ratio test was used in the last cohort.

For `N#Cc1ccc(C(c2ccc(C#N)cc2)n2cncn2)cc1` [Letrozole, letrozole], the “breast cancer-free survival and distant breast cancer-free survival” value [1] is given as “improves breast cancer-free survival and distant breast cancer-free survival”, the “Cases (cancer recurrence), number” value (ER+ breast cancer; High HoxB13 expression) is given as 17 and the “Cases (cancer recurrence), percent” value (ER+ breast cancer; High HoxB13 expression) is given as “(28%)”. The “Cases (cancer recurrence), number” value (ER+ breast cancer; Low HoxB13 expression) was 14, the “Cases (cancer recurrence), percent” value (ER+ breast cancer; Low HoxB13 expression) was “(23%)” and the “Odds Ratio, Treatment (Placebo vs Letrozole), in relation to cancer recurrence” value (ER+ breast cancer; univariate analysis, MA.17 subjects, 95% CI in the next column) was 2.02.
